Experimental data taken from ChEMBL document CHEMBL6134780, “Halogenated retinoid derivatives as dual RARα and RXRα modulators for treating acute promyelocytic leukemia cells” (Eur J Med Chem, 2024).
Calls of active or inactive are those of the source. No cut-off for these calls is given here.

Key:
NB-4 [1] = test: Cell cycle arrest in human NB4 cells assessed as accumulation of cells at G0/G1 phase at low concentration by DAPI staining based flow cytometric analysis; format: functional
ATRA-resistant NB4-LR2 [2] = test: Cell cycle arrest in human ATRA-resistant NB4-LR2 cells assessed as accumulation of cells at G2/M phase at 2 uM incubated for 3 to 12 hrs by DAPI staining based flow cytometric analysis; format: functional; conditions: time 3-12 hrs
NB-4 [3] = test: Cell cycle arrest in human NB4 cells assessed as accumulation of cells at sub-G1 phase at 2 uM incubated for 24 hrs by DAPI staining based flow cytometric analysis (reference value: 3 %); format: functional
NB-4 [4] = test: Cell cycle arrest in human NB4 cells transfected with pLVX-shRXRalpha plasmid assessed as accumulation of cells at G2/M phase at 1 uM incubated for 12 hrs by DAPI staining based flow cytometric analysis (reference value: 17 %); format: functional
NB-4 [5] = test: Cell cycle arrest in human NB4 cells assessed as accumulation of cells at G2/M phase at 2 uM incubated for 12 hrs by DAPI staining based flow cytometric analysis (reference value: 21 %); format: functional
NB-4 [6] = test: Cell cycle arrest in human NB4 cells assessed as accumulation of cells at S phase at 2 uM incubated for 24 hrs by DAPI staining based flow cytometric analysis (reference value: 26 %); format: functional
NB-4 [7] = test: Cell cycle arrest in human NB4 cells transfected with pLVX-shRNA2-negative control assessed as accumulation of cells at G2/M phase at 1 uM incubated for 12 hrs by DAPI staining based flow cytometric analysis (reference value: 24 %); format: functional
NB-4 [8] = test: Cell cycle arrest in human NB4 cells assessed as accumulation of cells at sub-G1 phase at 2 uM incubated for 6 hrs by DAPI staining based flow cytometric analysis (reference value: 3 %); format: functional
NB-4 [9] = test: Cell cycle arrest in human NB4 cells assessed as accumulation of cells at G2/M phase at 1 uM incubated for 24 hrs by DAPI staining based flow cytometric analysis (reference value: 23 %); format: functional
NB-4 [10] = test: Cell cycle arrest in human NB4 cells transfected with pLVX-shPML-RARalpha plasmid assessed as accumulation of cells at sub-G1 phase at 2 uM incubated for 12 hrs by DAPI staining based flow cytometric analysis (reference value: 21 %); format: functional
[11] = Cell cycle arrest in human ATRA-resistant NB4-LR2 cells assessed as accumulation of cells at S phase at 2 uM incubated for 24 hrs by DAPI staining based flow cytometric analysis (reference value: 21 %); format: functional
[12] = Cell cycle arrest in human ATRA-resistant NB4-LR2 cells assessed as accumulation of cells at sub-G1 phase at 2 uM incubated for 6 hrs by DAPI staining based flow cytometric analysis (reference value: 9 %); format: functional
[13] = Induction of apoptosis in human ATRA-resistant NB4-LR2 cells assessed as late apoptotic cells at 1 uM incubated for 24 hrs by Annexin V-FITC/PI staining based flow cytometric analysis (reference value: 5.62 %); format: functional
NB-4 [14] = test: Cell cycle arrest in human NB4 cells transfected with pLVX-shRNA2-negative control assessed as accumulation of cells at S phase at 2 uM incubated for 12 hrs by DAPI staining based flow cytometric analysis (reference value: 26 %); format: functional
[15] = Cell cycle arrest in human ATRA-resistant NB4-LR2 cells assessed as accumulation of cells at S phase at 1 uM incubated for 12 hrs by DAPI staining based flow cytometric analysis (reference value: 12 %); format: functional
NB-4 [16] = test: Cell cycle arrest in human NB4 cells assessed as accumulation of cells at G0/G1 phase at 1 uM incubated for 24 hrs by DAPI staining based flow cytometric analysis (reference value: 48 %); format: functional
[17] = Cell cycle arrest in human ATRA-resistant NB4-LR2 cells assessed as accumulation of cells at G2/M phase at 1 uM incubated for 12 hrs by DAPI staining based flow cytometric analysis (reference value: 28 %); format: functional
NB-4 [18] = test: Cell cycle arrest in human NB4 cells transfected with pLVX-shRXRalpha plasmid assessed as accumulation of cells at S phase at 2 uM incubated for 12 hrs by DAPI staining based flow cytometric analysis (reference value: 19 %); format: functional
NB-4 [19] = test: Cell cycle arrest in human NB4 cells transfected with pLVX-shRNA2-negative control assessed as accumulation of cells at S phase at 1 uM incubated for 12 hrs by DAPI staining based flow cytometric analysis (reference value: 26 %); format: functional
NB-4 [20] = test: Cell cycle arrest in human NB4 cells transfected with pLVX-shRNA2-negative control assessed as accumulation of cells at G0/G1 phase at 1 uM incubated for 12 hrs by DAPI staining based flow cytometric analysis (reference value: 46 %); format: functional
NB-4 [21] = test: Cell cycle arrest in human NB4 cells assessed as accumulation of cells at sub-G1 phase at 2 uM incubated for 12 hrs by DAPI staining based flow cytometric analysis (reference value: 3 %); format: functional
[22] = Cell cycle arrest in human ATRA-resistant NB4-LR2 cells assessed as accumulation of cells at S phase at 0.5 uM incubated for 24 hrs by DAPI staining based flow cytometric analysis (reference value: 21 %); format: functional
NB-4 [23] = test: Cell cycle arrest in human NB4 cells transfected with pLVX-shRXRalpha plasmid assessed as accumulation of cells at S phase at 1 uM incubated for 12 hrs by DAPI staining based flow cytometric analysis (reference value: 19 %); format: functional
[24] = Cell cycle arrest in human ATRA-resistant NB4-LR2 cells assessed as accumulation of cells at G2/M phase at 2 uM incubated for 12 hrs by DAPI staining based flow cytometric analysis (reference value: 15 %); format: functional
NB-4 [25] = test: Cell cycle arrest in human NB4 cells transfected with pLVX-shPML-RARalpha plasmid assessed as accumulation of cells at S phase at 2 uM incubated for 12 hrs by DAPI staining based flow cytometric analysis (reference value: 19 %); format: functional
NB-4 [26] = test: Cell cycle arrest in human NB4 cells transfected with pLVX-shRNA2-negative control assessed as accumulation of cells at G2/M phase at 2 uM incubated for 12 hrs by DAPI staining based flow cytometric analysis (reference value: 24 %); format: functional
ATRA-resistant NB4-LR2 [27] = test: Cell cycle arrest in human ATRA-resistant NB4-LR2 cells transfected with pLVX-shRXRalpha assessed as increase in cyclin B1 expression at 1 uM incubated for 12 hrs by Western blot analysis; format: functional, cell-based
NB-4 [28] = test: Cell cycle arrest in human NB4 cells assessed as accumulation of cells at S phase at 2 uM incubated for 6 hrs by DAPI staining based flow cytometric analysis (reference value: 20 %); format: functional
[29] = Cell cycle arrest in human ATRA-resistant NB4-LR2 cells assessed as accumulation of cells at sub-G1 phase at 2 uM incubated for 3 hrs by DAPI staining based flow cytometric analysis (reference value: 9 %); format: functional
[30] = Cell cycle arrest in human ATRA-resistant NB4-LR2 cells assessed as accumulation of cells at G0/G1 phase at 2 uM incubated for 3 hrs by DAPI staining based flow cytometric analysis (reference value: 57 %); format: functional
[31] = Cell cycle arrest in human ATRA-resistant NB4-LR2 cells assessed as accumulation of cells at G0/G1 phase at 2 uM incubated for 24 hrs by DAPI staining based flow cytometric analysis (reference value: 42 %); format: functional

SMILES: Cc1cc2c(cc1C(=O)/C(Br)=C\c1ccc(C(=O)O)cc1)C(C)(C)CCC2(C)C
- Activity (NB-4 [1]): Active
- Activity (ATRA-resistant NB4-LR2 [2]): Active

SMILES: Cc1cc2c(cc1C(=O)/C(Br)=C/c1ccc(C(=O)O)cc1)C(C)(C)CCC2(C)C
- Activity (NB-4 [3]): 9%
- Activity (NB-4 [4]): 45%
- Activity (NB-4 [5]): 62%
- Activity (NB-4 [6]): 19%
- Activity (NB-4 [7]): 54%
- Activity (NB-4 [8]): 3%
- Activity (NB-4 [9]): 45%
- Activity (NB-4 [10]): 27%
- Activity [11]: 22%
- Activity [12]: 22%
- Activity [13]: 20.28%
- Activity (NB-4 [14]): 18%
- Activity [15]: 16%
- Activity (NB-4 [16]): 38%
- Activity [17]: 52%
- Activity (NB-4 [18]): 22%
- Activity (NB-4 [19]): 8%
- Activity (NB-4 [20]): 30%
- Activity (NB-4 [21]): 4%
- Activity [22]: 12%
- Activity (NB-4 [23]): 7%
- Activity [24]: 22%
- Activity (NB-4 [25]): 11%
- Activity (NB-4 [26]): 44%
- Activity (ATRA-resistant NB4-LR2 [27]): inactive
- Activity (NB-4 [28]): 27%
- Activity [29]: 13%
- Activity [30]: 48%
- Activity [31]: 34%
